Data taken from patent US8901133B2, “Heterocyclic compounds and uses thereof” (Infinity Pharmaceuticals, Inc., priority 2010, dated 2014).

Assays:
Balb/c splenic B cells = experiment: B cell activation and proliferation assay (Alamar Blue); type: cell-based; conditions: Mus musculus, read-out: B cell prolif. IC50
Method: The ability of one or more subject compounds to inhibit B cell activation and proliferation is determined according to standard procedures known in the art. For example, an in vitro cellular proliferation assay is established that measures the metabolic activity of live cells. The assay is performed in a 96 well microtiter plate using Alamar Blue reduction. Balb/c splenic B cells are purified over a Ficoll-Paque™ PLUS gradient followed by magnetic cell separation using a MACS B cell Isolation Kit (Miletenyi). Cells are plated in 90 ul at 50,000 cells/well in B Cell Media (RPMI+10% FBS+Penn/Strep+50 uM bME+5 mM HEPES). A compound disclosed herein is diluted in B Cell Media and added in a 10 μl volume. Plates are incubated for 30 min at 37 C and 5% CO2 (0.2% DMSO final concentration). A 50 μl B cell stimulation cocktail is then added containing either 10 ug/ml LPS or 5 ug/ml F(ab′)2 Donkey anti-mouse IgM plus 2 ng/ml recombinant mouse IL4 in B Cell Media. Plates are incubated for 72 hours at 37° C. and 5% CO2. A volume of 15 μl of Alamar Blue reagent is added to each well and plates are incubated for 5 hours at 37 C and 5% CO2. Alamar Blue fluoresce is read at 560Ex/590Em, and IC50 or EC50 values are calculated using GraphPad Prism 5.

PI3Kδ = biological target: T1, PI3Kδ (Homo sapiens, UniProt O00329); experiment: PI3 Kinase HTRF assay, PI3Kδ; type: biochemical; conditions: 10 μM PIP2, 10 μM ATP; read-out: PI3K δ IC50
T1 construct: purchased Millipore Corporation 14-604-K
Excerpt: (§1) A PI3 Kinase HTRF® assay kit (cat No. 33-016) purchased from Millipore Corporation was used to screen compounds disclosed herein. This assay used specific, high affinity binding of the GRP1 pleckstrin homology (PH) domain to PIP3, the product of a Class 1A or 1B PI3 Kinase acting on its physiological substrate PIP2. During the detection phase of the assay, a complex was generated between the GST-tagged PH domain and biotinylated short chain PIP3. The biotinylated PIP3 and the GST-tagged PH domain recruited fluorophores (Streptavidin-Allophycocyanin and Europium-labeled anti-GST respectively) to form the fluorescence resonance energy transfer (FRET) architecture, generating a stable time-resolved FRET signal. The FRET complex was disrupted in a competitive manner by non-biotinylated PIP3, a product formed in the PI3 Kinase assay.
(§2) PI3 Kinase α, β, γ and δ activity was assayed using the PI3 Kinase HTRF® assay kit (catalogue No. 33-016) purchased from Millipore Corporation. Purified recombinant PI3Kα (catalogue No. 14-602-K), PI3Kβ (catalogue No. 14-603-K), PI3Kγ (catalogue No. 14-558-K) and PI3Kδ (catalogue No. 14-604-K) were obtained from Millipore Corporation. Purified recombinant PI3K enzyme was used to catalyze the phosphorylation of phosphatidylinositol 4,5-bisphosphate (PIP2 at 10 μM) to phosphatidylinositol 3,4,5-trisphosphate (PIP3) in the presence of 10 μM ATP. The assay was carried out in 384-well format and detected using a Perkin Elmer En Vision Xcite Multilabel Reader. Emission ratios were converted into percent inhibitions and imported into GraphPad Prism software. The concentration necessary to achieve inhibition of enzyme activity by 50% (IC50) was calculated using concentrations ranging from 20 μM to 0.1 nM (12-point curve). IC50 values were determined using a nonlinear regression model available in GraphPad Prism 5. […]

PI3Kα = biological target: T2, PI3Kα (Homo sapiens, UniProt P42336); experiment: PI3 Kinase HTRF assay, PI3Kα; type: biochemical; conditions: 10 μM PIP2, 10 μM ATP; read-out: PI3K α IC50
T2 construct: purchased Millipore Corporation 14-602-K
Excerpt: as §1, §2

PI3Kγ = biological target: T3, PI3Kγ (Homo sapiens, UniProt P48736); experiment: PI3 Kinase HTRF assay, PI3Kγ; type: biochemical; conditions: 10 μM PIP2, 10 μM ATP; read-out: PI3K γ IC50
T3 construct: purchased Millipore Corporation 14-558-K
Excerpt: as §1, §2

PI3Kβ = biological target: T4, PI3Kβ (Homo sapiens, UniProt P42338); experiment: PI3 Kinase HTRF assay, PI3Kβ; type: biochemical; conditions: 10 μM PIP2, 10 μM ATP; read-out: PI3K β IC50
T4 construct: purchased Millipore Corporation 14-603-K
Excerpt: as §1, §2

T4 sequence (P42338 whole entry): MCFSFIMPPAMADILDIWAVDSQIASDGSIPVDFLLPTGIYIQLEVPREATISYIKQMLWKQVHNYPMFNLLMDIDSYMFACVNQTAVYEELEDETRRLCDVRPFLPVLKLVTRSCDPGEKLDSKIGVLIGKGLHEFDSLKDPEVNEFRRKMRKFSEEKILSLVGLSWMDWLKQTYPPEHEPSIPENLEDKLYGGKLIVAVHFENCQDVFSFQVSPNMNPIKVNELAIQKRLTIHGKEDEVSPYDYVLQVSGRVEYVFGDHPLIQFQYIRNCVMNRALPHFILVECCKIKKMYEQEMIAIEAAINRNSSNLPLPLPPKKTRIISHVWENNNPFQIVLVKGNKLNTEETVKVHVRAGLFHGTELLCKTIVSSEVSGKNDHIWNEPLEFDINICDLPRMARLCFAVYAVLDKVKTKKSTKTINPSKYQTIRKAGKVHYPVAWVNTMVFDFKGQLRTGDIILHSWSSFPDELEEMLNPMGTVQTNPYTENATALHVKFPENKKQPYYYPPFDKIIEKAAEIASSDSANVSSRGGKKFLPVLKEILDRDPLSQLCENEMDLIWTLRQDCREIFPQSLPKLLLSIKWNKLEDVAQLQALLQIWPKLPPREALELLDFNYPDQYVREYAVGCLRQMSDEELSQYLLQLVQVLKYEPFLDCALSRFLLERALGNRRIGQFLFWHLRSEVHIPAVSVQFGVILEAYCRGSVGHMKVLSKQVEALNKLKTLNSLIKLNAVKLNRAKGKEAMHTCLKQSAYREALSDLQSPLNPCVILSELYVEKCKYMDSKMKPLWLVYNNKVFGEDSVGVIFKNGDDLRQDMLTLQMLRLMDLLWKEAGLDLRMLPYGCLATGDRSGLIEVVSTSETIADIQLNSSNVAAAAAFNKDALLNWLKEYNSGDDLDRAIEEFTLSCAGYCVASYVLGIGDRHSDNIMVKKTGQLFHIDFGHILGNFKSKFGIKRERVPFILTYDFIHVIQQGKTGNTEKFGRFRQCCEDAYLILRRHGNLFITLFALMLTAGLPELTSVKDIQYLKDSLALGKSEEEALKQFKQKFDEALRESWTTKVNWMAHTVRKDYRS
T4 sequence (P27986 whole entry partner): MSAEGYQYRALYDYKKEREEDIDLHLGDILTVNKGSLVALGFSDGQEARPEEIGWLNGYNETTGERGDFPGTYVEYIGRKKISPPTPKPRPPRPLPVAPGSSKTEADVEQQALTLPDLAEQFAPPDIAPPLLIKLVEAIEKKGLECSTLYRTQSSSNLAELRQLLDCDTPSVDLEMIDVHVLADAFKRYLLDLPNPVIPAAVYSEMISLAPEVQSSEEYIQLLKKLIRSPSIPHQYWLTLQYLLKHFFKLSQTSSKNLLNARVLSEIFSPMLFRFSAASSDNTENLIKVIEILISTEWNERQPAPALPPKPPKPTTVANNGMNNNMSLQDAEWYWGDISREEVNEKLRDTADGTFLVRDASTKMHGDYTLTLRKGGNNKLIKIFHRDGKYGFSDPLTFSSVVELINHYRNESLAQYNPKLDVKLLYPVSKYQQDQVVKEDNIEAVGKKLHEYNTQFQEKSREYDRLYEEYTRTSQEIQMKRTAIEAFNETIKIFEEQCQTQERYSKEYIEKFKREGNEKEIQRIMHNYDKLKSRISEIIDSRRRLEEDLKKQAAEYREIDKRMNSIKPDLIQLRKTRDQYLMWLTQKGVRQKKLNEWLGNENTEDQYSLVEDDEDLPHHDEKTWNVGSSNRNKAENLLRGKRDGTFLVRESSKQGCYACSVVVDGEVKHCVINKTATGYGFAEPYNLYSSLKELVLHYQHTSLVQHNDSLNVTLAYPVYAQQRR
T3 sequence (P48736 whole entry): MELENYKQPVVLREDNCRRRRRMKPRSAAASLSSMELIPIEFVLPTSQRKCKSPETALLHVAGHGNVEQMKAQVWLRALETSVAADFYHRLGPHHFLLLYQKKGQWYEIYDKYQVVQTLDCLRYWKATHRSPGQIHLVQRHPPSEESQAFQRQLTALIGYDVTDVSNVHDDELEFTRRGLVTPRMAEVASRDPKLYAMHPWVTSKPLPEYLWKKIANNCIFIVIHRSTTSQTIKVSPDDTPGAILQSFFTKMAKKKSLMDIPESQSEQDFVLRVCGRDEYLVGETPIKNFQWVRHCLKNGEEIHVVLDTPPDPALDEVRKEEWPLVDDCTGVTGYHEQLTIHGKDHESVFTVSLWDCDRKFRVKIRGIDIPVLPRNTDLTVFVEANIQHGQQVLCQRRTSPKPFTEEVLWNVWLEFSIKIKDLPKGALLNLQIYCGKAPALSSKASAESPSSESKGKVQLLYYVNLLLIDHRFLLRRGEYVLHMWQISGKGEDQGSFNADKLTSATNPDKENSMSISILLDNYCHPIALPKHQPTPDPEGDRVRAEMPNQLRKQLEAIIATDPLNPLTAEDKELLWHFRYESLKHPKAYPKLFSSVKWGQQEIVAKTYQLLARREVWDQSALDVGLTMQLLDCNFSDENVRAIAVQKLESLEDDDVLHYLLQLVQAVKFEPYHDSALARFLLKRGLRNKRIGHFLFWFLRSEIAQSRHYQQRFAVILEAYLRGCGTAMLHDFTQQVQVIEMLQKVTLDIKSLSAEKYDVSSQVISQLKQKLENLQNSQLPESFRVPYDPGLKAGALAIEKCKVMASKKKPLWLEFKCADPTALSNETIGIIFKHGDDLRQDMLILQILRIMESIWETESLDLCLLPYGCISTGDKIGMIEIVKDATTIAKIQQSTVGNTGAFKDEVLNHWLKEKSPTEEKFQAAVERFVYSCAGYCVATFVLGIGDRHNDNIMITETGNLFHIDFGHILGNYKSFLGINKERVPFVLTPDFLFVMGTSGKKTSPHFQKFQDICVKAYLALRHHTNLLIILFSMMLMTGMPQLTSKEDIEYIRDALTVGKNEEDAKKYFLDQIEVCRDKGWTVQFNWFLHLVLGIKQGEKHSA
T2 sequence (P42336 whole entry): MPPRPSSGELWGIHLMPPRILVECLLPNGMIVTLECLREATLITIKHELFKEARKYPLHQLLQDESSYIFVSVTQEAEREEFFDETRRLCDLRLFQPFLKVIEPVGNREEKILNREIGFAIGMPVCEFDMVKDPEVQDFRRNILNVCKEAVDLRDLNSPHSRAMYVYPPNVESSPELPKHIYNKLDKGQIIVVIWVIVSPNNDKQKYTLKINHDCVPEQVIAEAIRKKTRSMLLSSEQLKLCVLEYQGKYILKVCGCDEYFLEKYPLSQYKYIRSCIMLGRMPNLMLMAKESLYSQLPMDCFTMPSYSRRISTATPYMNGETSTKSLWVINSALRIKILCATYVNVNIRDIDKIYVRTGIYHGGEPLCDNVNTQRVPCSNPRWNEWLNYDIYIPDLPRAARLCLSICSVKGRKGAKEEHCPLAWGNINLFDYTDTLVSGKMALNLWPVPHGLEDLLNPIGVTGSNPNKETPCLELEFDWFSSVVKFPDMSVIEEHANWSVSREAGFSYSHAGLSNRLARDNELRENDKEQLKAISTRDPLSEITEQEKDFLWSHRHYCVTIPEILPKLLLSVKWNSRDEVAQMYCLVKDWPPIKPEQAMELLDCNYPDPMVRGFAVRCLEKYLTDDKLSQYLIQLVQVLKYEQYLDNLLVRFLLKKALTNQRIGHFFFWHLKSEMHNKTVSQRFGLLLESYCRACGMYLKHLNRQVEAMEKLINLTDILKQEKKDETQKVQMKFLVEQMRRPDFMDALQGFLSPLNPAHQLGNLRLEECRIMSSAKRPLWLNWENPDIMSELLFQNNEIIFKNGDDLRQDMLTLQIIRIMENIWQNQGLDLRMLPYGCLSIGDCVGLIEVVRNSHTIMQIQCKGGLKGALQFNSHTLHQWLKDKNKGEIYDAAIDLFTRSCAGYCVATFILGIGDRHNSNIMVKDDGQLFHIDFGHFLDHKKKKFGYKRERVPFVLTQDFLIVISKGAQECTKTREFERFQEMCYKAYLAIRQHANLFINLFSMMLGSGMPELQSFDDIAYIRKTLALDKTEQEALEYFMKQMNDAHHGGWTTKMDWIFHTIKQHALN
T2 sequence (P27986 whole entry partner): as the sequence (P27986 whole entry partner) above
T1 sequence (O00329 whole entry): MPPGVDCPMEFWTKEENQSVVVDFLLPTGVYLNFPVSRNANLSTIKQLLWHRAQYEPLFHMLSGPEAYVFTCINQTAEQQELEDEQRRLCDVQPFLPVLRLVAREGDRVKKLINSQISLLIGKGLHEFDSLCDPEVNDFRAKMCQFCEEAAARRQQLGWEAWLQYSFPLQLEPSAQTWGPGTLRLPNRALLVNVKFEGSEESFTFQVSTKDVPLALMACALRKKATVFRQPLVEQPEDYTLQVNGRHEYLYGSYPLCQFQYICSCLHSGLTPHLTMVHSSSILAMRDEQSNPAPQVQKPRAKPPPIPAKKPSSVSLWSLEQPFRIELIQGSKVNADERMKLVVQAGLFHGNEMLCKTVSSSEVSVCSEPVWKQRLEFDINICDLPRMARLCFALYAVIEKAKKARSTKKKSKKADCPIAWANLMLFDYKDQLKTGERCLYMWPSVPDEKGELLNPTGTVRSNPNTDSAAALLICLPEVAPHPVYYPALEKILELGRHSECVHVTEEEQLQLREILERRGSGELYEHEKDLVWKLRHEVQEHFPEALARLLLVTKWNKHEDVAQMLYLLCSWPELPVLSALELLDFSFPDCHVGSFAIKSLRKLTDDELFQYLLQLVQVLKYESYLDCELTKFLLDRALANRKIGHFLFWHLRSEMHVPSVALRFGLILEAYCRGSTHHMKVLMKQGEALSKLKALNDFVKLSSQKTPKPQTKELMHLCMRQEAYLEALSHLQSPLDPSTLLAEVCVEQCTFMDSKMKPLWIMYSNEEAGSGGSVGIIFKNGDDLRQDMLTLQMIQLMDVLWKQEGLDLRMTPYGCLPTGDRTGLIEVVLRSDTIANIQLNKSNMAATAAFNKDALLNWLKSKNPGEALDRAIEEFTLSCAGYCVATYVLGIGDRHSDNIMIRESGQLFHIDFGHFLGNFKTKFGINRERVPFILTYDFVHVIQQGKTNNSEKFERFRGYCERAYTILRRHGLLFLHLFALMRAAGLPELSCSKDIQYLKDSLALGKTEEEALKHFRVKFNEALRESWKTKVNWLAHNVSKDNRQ
T1 sequence (P27986 whole entry partner): as the sequence (P27986 whole entry partner) above

IC50 (PI3Kδ) [µM] | IC50 (PI3Kα) [µM] | IC50 (PI3Kγ) [µM] | IC50 (PI3Kβ) [µM] | Structure (SMILES) | IC50 (Balb/c splenic B cells) [µM]
< 0.1 | > 10 | < 1 | > 10 | C[C@H](Nc1ncnc2[nH]cnc12)c1cc2cccc(-c3cccnc3)c2c(Cl)n1 [Compound 192] | < 1
< 0.1 | < 10 | < 1 | < 1 | C[C@H](Nc1ncnc2[nH]cnc12)c1cc2cccc(Cl)c2c(-c2cc(CO)on2)n1 [Compound 242] | < 0.1
< 0.1 | < 10 | < 10 | < 10 | CCN1CCN(c2nc([C@H](C)Nc3ncnc4[nH]cnc34)cc3cccc(Cl)c23)CC1 [Compound 91] | < 0.1
< 0.1 | > 10 | < 10 | < 10 | C[C@H](Nc1ncnc2[nH]cnc12)c1cc2cccc(Cl)c2c(CC(=O)N2CCCC2)n1 [Compound 36] | < 1
< 0.1 | > 10 | < 10 | < 10 | Cc1cccc2cc([C@H](C)Nc3ncnc4[nH]cnc34)nc(N3CCN(C)CC3)c12 [Compound 109] | 
< 1 | > 10 | > 10 | > 10 | Cc1nc([C@H](C)Nc2ncnc3[nH]cnc23)cc2cccc(C(=O)N3CCOCC3)c12 [Compound 198] | 
< 1 | > 10 | > 10 | > 10 | CC(C)N1CCC(NC(=O)c2nc([C@H](C)Nc3ncnc4scnc34)cc3cccc(Cl)c23)CC1 [Compound 211] | 
< 1 | < 10 | < 1 | > 10 | C[C@H](Nc1ncnc2cccnc12)c1cc2cccc(Cl)c2c(C(=O)N2CCCCC2)n1 [Compound 230] | 
< 0.1 | < 1 | < 0.1 | < 1 | C[C@H](Nc1ncnc2cccnc12)c1cc2cccc(Cl)c2c(N2CCN(C)CC2)n1 [Compound 96] | 
> 10 | > 10 | > 10 | > 10 | C[C@@H](Nc1ncnc2[nH]cnc12)c1cc2cccc(Cl)c2c(CN2CCCC2)n1 [Compound 239] | 
< 1 | > 10 | < 10 | < 10 | C[C@H](NC(=O)c1nccnc1N)c1cc2cccc(Cl)c2c(CCN2CCOCC2)n1 [Compound 89, (S)-3-amino-N-(1-(8-chloro-1-(2-morpholinoethyl)isoquinolin-3-yl)ethyl)pyrazine-2-carboxamide] | 
< 1 | > 10 | < 10 | > 10 | C[C@H](Nc1ncnc2cccnc12)c1cc2cccc(Cl)c2c(C(=O)NC2CCOCC2)n1 [Compound 143] | 
< 1 | < 10 | < 10 | < 10 | C[C@H](Nc1ncnc2[nH]cnc12)c1cc2cccc(Cl)c2c(OCC(C)(C)O)n1 [Compound 88] | 
< 1 | > 10 | < 10 | < 10 | C[C@H](Nc1ncnc2[nH]cnc12)c1cc2cccc(C(F)(F)F)c2c(N2CCN(C)CC2)n1 [Compound 111] | 
< 1 | < 10 | < 10 | > 10 | C[C@H](Nc1ncnc2cccnc12)c1cc2cccc(-c3cnn(C)c3)c2c(C(=O)N2CCOCC2)n1 [Compound 187] | 
< 0.1 | > 10 | > 10 | > 10 | C[C@H](Nc1ncnc2[nH]cnc12)c1cc2cccc(F)c2c(N2CCN(C)CC2)n1 [Compound 100] | 
< 1 | > 10 | < 1 | < 10 | C[C@H](Nc1ncnc2scnc12)c1cc2cccc(Cl)c2c(C(=O)N(C)C)n1 [Compound 223] | 

The remaining lines, values behind:

Structure (SMILES) | IC50 (PI3Kδ) [µM] | IC50 (PI3Kα) [µM] | IC50 (PI3Kγ) [µM] | IC50 (PI3Kβ) [µM] | IC50 (Balb/c splenic B cells) [µM]
C[C@H](Nc1ccnn2ccnc12)c1cc2ccccc2c(CCN2CCOCC2)n1 [Compound 77, (S)—N-(1-(1-(2-morpholinoethyl)isoquinolin-3-yl)ethyl)imidazo[1,2-b]pyridazin-8-amine] | < 0.1 | > 10 | > 10 | > 10 | < 0.1
Cc1cccc2cc([C@H](C)Nc3ncnc4cccnc34)nc(OC3CCN(C(C)C)CC3)c12 [Compound 163] | < 0.1 | < 10 | < 10 | > 10 | < 0.1
C[C@H](Nc1ncnc2cccnc12)c1cc2cccc(Cl)c2c(CCN2CCOCC2)n1 [Compound 75] | < 0.1 | < 1 | < 1 | < 1 | < 0.1
C[C@H](Nc1ncnc2scnc12)c1cc2cccc(Cl)c2c(C(=O)N2CCOC[C@@H]2C)n1 [Compound 232] | < 0.1 | < 10 | < 10 | < 10 | < 0.1
C[C@H](Nc1ncnc2[nH]cnc12)c1cc2cccc(Cl)c2c(OCC(=O)N2CCCC2)n1 [Compound 45] | < 0.1 | > 10 | < 10 | > 10 | < 1
C[C@H](Nc1ncnc2[nH]cnc12)c1nc(CCN2CCOCC2)c2ccccc2c1F [Compound 87] | < 1 | > 10 | > 10 | > 10 | 
C[C@H](Nc1ncnc2cccnc12)c1cc2cccc(Cl)c2c(C(=O)N2CCNC(=O)C2)n1 [Compound 225] | < 1 | < 10 | < 1 | > 10 | 
C[C@H](Nc1ncnc2[nH]cnc12)c1cc2cccc(Cl)c2c(C(=O)NC2CCC(O)CC2)n1 (stereo partly drawn) [Compound 58] | < 0.1 | > 10 | < 10 | > 10 | 
C[C@H](Nc1ncnc2[nH]cnc12)c1cc2cc(F)ccc2c(CCN2CCOCC2)n1 [Compound 55] | < 1 | > 10 | > 10 | > 10 | 
C[C@H](Nc1ncnc2[nH]cnc12)c1cc2cccc(-c3cnn(C)c3)c2c(Cl)n1 [Compound 193] | < 0.1 | > 10 | < 1 | > 10 | 
C[C@H](Nc1ncnc2[nH]cnc12)c1cc2cccc(-c3cnn(C)c3)c2c(CCN2CCOCC2)n1 [Compound 157] | < 1 | > 10 | < 10 | > 10 | 
C[C@H](Nc1ncnc2[nH]cc(C#N)c12)c1cc2cccc(Cl)c2c(C(=O)N2C3CCC2COC3)n1 [Compound 206] | < 0.1 | > 10 | < 10 | < 10 | 
C[C@H](Nc1cc(Cl)nn2ccnc12)c1cc2ccccc2c(CCN2CCOCC2)n1 [Compound 78] | < 10 | > 10 | > 10 | > 10 | 
CNC(=O)NCCOc1nc([C@H](C)Nc2ncnc3[nH]cnc23)cc2cccc(Cl)c12 [Compound 139] | < 1 | > 10 | < 10 | < 10 | 
C[C@H](Nc1ncnc2scnc12)c1cc2cccc(Cl)c2c(C(=O)N2CCCOCC2)n1 [Compound 227] | < 0.1 | < 10 | < 10 | < 10 | 
C[C@H](Nc1ncnc2[nH]cc(F)c12)c1cc2cccc(Cl)c2c(C(=O)N2CCOCC2)n1 [Compound 205] | < 0.1 | < 10 | < 1 | < 10 | 
